Where two headings read alike, the source gives them in different places.
Tests used:
[1] = Ex vivo biodistribution in tumor-bearing nude mice (non-tumor tissues); details: male, Balb/cAnNRj-Foxn1nu/nu (nude), mouse, iv, total radioactivity, ex vivo after PET/CT scan, i.v., n = 3
Description: (§1) For the evaluation of the in vivo pharmacokinetics, the two most promising HBPLs—[^18F]2 with the highest affinity to both target receptors and [^18F]4 with the highest hydrophilicity and still reasonable binding affinities—were selected. For PET/CT imaging, 6-week-old male nude mice (Balb/cAnNRj-Foxn1^nu/nu) were subcutaneously injected with 5 × 10^5 B16F10 cells into the right flank and 2.0–2.5 × 10^6 U87MG cells into the left flank to generate the respective receptor-positive tumors. When the tumors reached a sufficient size for imaging, each mouse was administered 4.15 ± 2.28 MBq of [^18F]2 or 3.95 ± 2.06 MBq of [^18F]4 via the lateral tail vein under isoflurane anesthesia. To determine the receptor specificity of both peptide parts of the labeled HBPLs and their relative contribution to overall tumor uptake, blocking experiments were also performed. […] After i.v. injection of the tracers, a dynamic PET scan, followed by a CT scan, was performed. The resulting PET/CT images and time–activity curves (TACs) are depicted in Figure 6, Figure 7 and Figure 8. After completion of the diagnostic scans, the mice were sacrificed, their organs (blood, spleen, liver, kidney, pancreas, lung, heart, brain, bone, muscle, tail, tumors, stomach, colon and small intestine) were collected and measured in a γ-counter for ex vivo biodistribution (see Supplementary Materials Table S1 for detailed results).
(§2) Each male nude mouse (six weeks old) was injected subcutaneously with 5 × 10^5 B16F10 cells into the right flank and 2.0–2.5 × 10^6 U87MG cells into the left flank. The health status and tumor growth of the mice were monitored regularly until the animals could be examined after 15–21 days, depending on the tumor size. For the in vivo experiments, the ^18F-radiolabeled compound was diluted in 0.9% saline to give a final EtOH concentration of <10%. Each mouse was injected with 4.15 ± 2.28 MBq of [^18F]2 or 3.95 ± 2.06 MBq of [^18F]4 via the lateral tail vein under isoflurane anesthesia. […] Each ^18F-labeled compound was studied with or without blocking in at least three mice. Mice were measured under isoflurane anesthesia in a small PET/SPECT/CT animal imaging system. First, a dynamic PET scan was performed over 90 min and the scan was framed in 29 timeframes (10 × 1 min, 10 × 2 min, 6 × 5 min, 3 × 10 min). Images were reconstructed using 12 iterations, a maximum likelihood expectation maximization (MLEM) algorithm including corrections for scattered radiation and decay and a voxel size of 0.5 mm. All PET scans were immediately followed by CT acquisition at a voltage of 45 kV and a current of 400 μA. The images were reconstructed using the filtered back projection (FBP) algorithm with a voxel size of 250 μm. The analysis of the data, including the generation of TACs of the kidneys, liver and tumors and the MIPs, was performed via PMOD (v3.8). For ex vivo biodistribution, the mice were sacrificed directly after the PET/CT scan. Organs (blood, spleen, liver, kidneys, pancreas, lungs, heart, brain, bone, muscle, tail, tumors, stomach, colon and small intestine) were collected, weighed and their radioactivity measured in a γ-counter. The percentage injected dose per gram (% ID/g) of each tissue was calculated from the determined values, organ weights, reference values and injected activity.

B16F10 and U87MG tumors = experiment: In vivo dynamic PET/CT imaging and time–activity curves; set-up: species or system nude mice (Balb/cAnNRj-Foxn1nu/nu)
Description: as §1
Briefly, 4–5-week-old male nude mice (Balb/cAnNRj-Foxn1^nu/nu) were obtained from Janvier. A dynamic PET scan over 90 min and a subsequent CT image over 20 min were acquired using a triple-modality Bruker Albira II small-animal PET/CT/SPECT scanner. Three animals were studied per group.
as §2

[2] = tested on: integrin αvβ3-positive U87MG tumors; experiment: Ex vivo biodistribution: uptake in U87MG tumors and tumor-to-organ ratios; set-up: species or system nude mice (Balb/cAnNRj-Foxn1nu/nu); details: c(RGDyK) blocking (200 μg coinjected); ex vivo after PET/CT scan; i.v.; n = 3
Description: as §1, §2

[3] = as above; set-up: species or system nude mice (Balb/cAnNRj-Foxn1nu/nu); details: male, Balb/cAnNRj-Foxn1nu/nu (nude), mouse, iv, total radioactivity; for tissue uptake: U87MG tumor (integrin αvβ3-positive); for tissue to tissue ratio: ex vivo biodistribution, mean (n = 3) ± SD
Description: as §1, §2

CCCC[C@H](NC(=O)CNC(=O)CNC(=O)CCOCCOCCOCCOCCOCCOCCOCCOCCOCCC(=O)NCCCN(CCCNC(=O)CCOCCOCCOCCOCCOCCOCCOCCOCCOCCC(=O)NCCCC[C@@H]1NC(=O)[C@@H](Cc2ccccc2)NC(=O)[C@H](CC(=O)O)NC(=O)CNC(=O)[C@H](CCCNC(=N)N)NC1=O)CC(=O)N[C@@H](CCCCNC(=O)CCC[N+](C)(C)Cc1ccc([Si](F)(C(C)(C)C)C(C)(C)C)cc1)C(N)=O)C(=O)N[C@H]1CC(=O)NCCCC[C@@H](C(N)=O)NC(=O)[C@H](Cc2c[nH]c3ccccc23)NC(=O)[C@H](CCCNC(=N)N)NC(=O)[C@@H](Cc2ccccc2)NC(=O)[C@H](Cc2c[nH]cn2)NC1=O [[^18F]4]
tissue uptake at 1.5 h ([1]; muscle, double blocking (NDP + c(RGDyK)), read-out: ID/g, muscle): 2.58 ± 1.28 %ID/g
tissue uptake at 1.5 h ([1]; muscle, without blocking, read-out: ID/g, muscle): 0.07 ± 0.02 %ID/g
tissue uptake at 1.5 h ([1]; pancreas, NDP blocking (20 μg coinjected), read-out: ID/g, pancreas): 0.52 ± 0.12 %ID/g
tissue uptake at 1.5 h ([1]; pancreas, c(RGDyK) blocking (200 μg coinjected), read-out: ID/g, pancreas): 0.66 ± 0.19 %ID/g
tissue uptake at 1.5 h ([1]; pancreas, double blocking (NDP + c(RGDyK)), read-out: ID/g, pancreas): 0.32 ± 0.04 %ID/g
tissue uptake at 1.5 h ([1]; pancreas, without blocking, read-out: ID/g, pancreas): 0.25 ± 0.08 %ID/g
tissue uptake ([1]; small intestine, NDP blocking (20 μg coinjected), read-out: ID/g, small intestine): 1.6 ± 0.26 %ID/g
tissue uptake ([1]; small intestine, c(RGDyK) blocking (200 μg coinjected), read-out: ID/g, small intestine): 1.46 ± 0.53 %ID/g
tissue uptake ([1]; small intestine, double blocking (NDP + c(RGDyK)), read-out: ID/g, small intestine): 0.54 ± 0.08 %ID/g
tissue uptake ([1]; small intestine, without blocking, read-out: ID/g, small intestine): 0.07 ± 0.02 %ID/g
tissue uptake ([1]; spleen, NDP blocking (20 μg coinjected), read-out: ID/g, spleen): 1.51 ± 0.15 %ID/g
tissue uptake ([1]; spleen, c(RGDyK) blocking (200 μg coinjected), read-out: ID/g, spleen): 1.71 ± 0.62 %ID/g
tissue uptake ([1]; spleen, double blocking (NDP + c(RGDyK)), read-out: ID/g, spleen): 0.69 ± 0.1 %ID/g
tissue uptake ([1]; spleen, without blocking, read-out: ID/g, spleen): 1.79 ± 0.31 %ID/g
tissue uptake ([1]; stomach, NDP blocking (20 μg coinjected), read-out: ID/g, stomach): 1.03 ± 0.11 %ID/g
tissue uptake ([1]; stomach, c(RGDyK) blocking (200 μg coinjected), read-out: ID/g, stomach): 0.99 ± 0.16 %ID/g
tissue uptake ([1]; stomach, double blocking (NDP + c(RGDyK)), read-out: ID/g, stomach): 0.42 ± 0.03 %ID/g
tissue uptake ([1]; stomach, without blocking, read-out: ID/g, stomach): 0.38 ± 0.13 %ID/g
tissue uptake at 1.5 h ([1]; tail, NDP blocking (20 μg coinjected), read-out: ID/g, tail): 52.8 ± 5.59 %ID/g
tissue uptake at 1.5 h ([1]; tail, c(RGDyK) blocking (200 μg coinjected), read-out: ID/g, tail): 44.3 ± 12.1 %ID/g
tissue uptake ([1]; tail, double blocking (NDP + c(RGDyK)), read-out: ID/g, tail): 55.6 ± 7.12 %ID/g
tissue uptake at 1.5 h ([1]; tail, without blocking, read-out: ID/g, tail): 25.3 ± 8.43 %ID/g
visualization of B16F10 and U87MG tumors by PET/CT (B16F10 and U87MG tumors; PET/CT scans, MIPs 50–90 min post-injection): clearly visualize
time at which uptakes in kidneys and liver reached their maximum (TACs) (B16F10 and U87MG tumors; dynamic PET over 90 min, i.v.): 5 to 10 min
time at which the curves of both tumors approached a plateau (TACs) (B16F10 and U87MG tumors; dynamic PET over 90 min, i.v., B16F10 and U87MG tumors): about 70 min
ID/g, U87MG tumor [2]: 2.67 ± 0.66 % ID/g
tissue uptake ([3]; NDP blocking (20 μg coinjected), ex vivo after PET/CT scan, i.v., n = 3): 2.53 ± 0.15 %ID/g
tissue uptake ([3]; c(RGDyK) blocking (200 μg coinjected), ex vivo after PET/CT scan, i.v., n = 3): 2.67 ± 0.66 %ID/g
tissue uptake ([3]; double blocking (NDP + c(RGDyK)), ex vivo after PET/CT scan, i.v., n = 3): 0.9 ± 0.05 %ID/g
tissue uptake ([3]; without blocking, ex vivo after PET/CT scan, i.v., n = 3): 3.92 ± 1.31 %ID/g
tissue to tissue ratio ([3]; U87MG tumor / blood, without blocking, read-out: tumor/blood ratio, U87MG): 5.08 ± 0.75
tissue to tissue ratio ([3]; U87MG tumor / kidneys, without blocking, read-out: tumor/kidneys ratio, U87MG): 0.4 ± 0.07
tissue to tissue ratio ([3]; U87MG tumor / liver, without blocking, read-out: tumor/liver ratio, U87MG): 0.39 ± 0.14
tissue to tissue ratio ([3]; U87MG tumor / muscle, without blocking, read-out: tumor/muscle ratio, U87MG): 45.7 ± 8.62
tissue uptake at 1.5 h ([3]; U87MG tumor, without blocking, ex vivo after PET/CT scan, i.v., n = 3): 3.92 ± 1.31 %ID/g
